This note sets out measurements from the supplement of paper PMC6045584.

± gives the standard deviation of the averaged measurements.

Compound in one experiment: COc1cc([C@@H]2c3cc4c(cc3[C@@H](O[C@@H]3O[C@@H]5CO[C@@H](C)O[C@H]5[C@H](O)[C@H]3O)[C@H]3COC(=O)[C@H]23)OCO4)cc(OC)c1O [ETOPOSIDE]
Description: surviving fraction relative to DMSO-only wells; higher = less growth inhibition. The settings on record: exposure time: 5 days. The procedure, abridged:
(§1)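 At 250–500 cells per well in 384-well plates, log-phase tumour cell lines were seeded and, 24 hours on, exposed continuously for five days to inhibitors at 0.5, 1, 5, 10, 50, 100, 500 and 1000 nM. Viability readout was CellTiter-Glo luminescence, reported as surviving fraction normalised to the median of DMSO-only wells.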

Compound in experiment [1]: Cc1nc(Nc2n[nH]c3c2CN(C(=O)N[C@H](CN(C)C)c2ccccc2)C3(C)C)c2sccc2n1
The description is as above. The note with it: exposure time: 5 days. The procedure, abridged:
as §1

As to CAL51 BREAST, the surviving fraction with ETOPOSIDE (0.5 nM) amounted to 0.951 ± 0.068; in the experiment with ETOPOSIDE (1 nM), 1.02 ± 0.022; with ETOPOSIDE (5 nM) it was 0.956 ± 0.039; with ETOPOSIDE (10 nM), 0.977 ± 0.049; with ETOPOSIDE (50 nM), 0.929 ± 0.063; in the experiment with ETOPOSIDE (100 nM), 0.921 ± 0.019. Besides, the surviving fraction with ETOPOSIDE (500 nM) was 0.305 ± 0.037; with ETOPOSIDE (1000 nM) it was 0.139 ± 0.011; in experiment [1] (0.5 nM) it was 0.898 ± 0.011; in experiment [1] (1 nM), 0.765 ± 0.047; in experiment [1] (5 nM) it was 0.281 ± 0.017; in experiment [1] (10 nM) it was 0.181 ± 0.0083. Also, the surviving fraction was found to be 0.0752 ± 0.002 in experiment [1] (50 nM), 0.0562 ± 0.0013 in experiment [1] (100 nM), 0.0417 ± 0.0018 in experiment [1] (500 nM) and 0.0317 ± 0.0014 in experiment [1] (1000 nM).

With CAL120 BREAST, the surviving fraction in the experiment with ETOPOSIDE (0.5 nM) was 0.939 ± 0.036; with ETOPOSIDE (1 nM) it was 0.933 ± 0.033; in the experiment with ETOPOSIDE (5 nM), 0.982 ± 0.016; in the experiment with ETOPOSIDE (10 nM), 0.973 ± 0.013; with ETOPOSIDE (50 nM), 0.938 ± 0.035; with ETOPOSIDE (100 nM), 0.939 ± 0.038. For the same test system, the surviving fraction was found to be 0.498 ± 0.1 with ETOPOSIDE (500 nM); 0.356 ± 0.011 with ETOPOSIDE (1000 nM); 0.904 ± 0.0095 in experiment [1] (0.5 nM); 0.599 ± 0.021 in experiment [1] (1 nM); 0.364 ± 0.019 in experiment [1] (5 nM); 0.287 ± 0.0047 in experiment [1] (10 nM). Besides, the surviving fraction in experiment [1] (50 nM) is 0.242 ± 0.03; in experiment [1] (100 nM), 0.223 ± 0.0029; in experiment [1] (500 nM), 0.24 ± 0.028; in experiment [1] (1000 nM), 0.151 ± 0.018.

In the case of CASKI CERVIX, the surviving fraction in the experiment with ETOPOSIDE (0.5 nM) turned out to be 0.904 ± 0.037; with ETOPOSIDE (1 nM) it was 0.934 ± 0.061; with ETOPOSIDE (5 nM), 0.99 ± 0.035; with ETOPOSIDE (10 nM), 0.939 ± 0.014; with ETOPOSIDE (50 nM), 0.876 ± 0.051; with ETOPOSIDE (100 nM), 0.86 ± 0.0087. For the same test system, the surviving fraction in the experiment with ETOPOSIDE (500 nM) came out at 0.303 ± 0.019; with ETOPOSIDE (1000 nM) it was 0.182 ± 0.0059; in experiment [1] (0.5 nM), 0.713 ± 0.037; in experiment [1] (1 nM), 0.472 ± 0.0095; in experiment [1] (5 nM) it was 0.237 ± 0.0071; in experiment [1] (10 nM), 0.193 ± 0.0081. For the same test system, the surviving fraction in experiment [1] (50 nM) stood at 0.13 ± 0.013; in experiment [1] (100 nM), 0.0993 ± 0.012; in experiment [1] (500 nM) it was 0.0227 ± 0.0031; in experiment [1] (1000 nM), 0.0183 ± 0.00058.

Consider CHLA90 AUTONOMIC GANGLIA, for which the surviving fraction came to 0.964 ± 0.044 with ETOPOSIDE (0.5 nM); 0.995 ± 0.043 with ETOPOSIDE (1 nM); 0.978 ± 0.069 in the experiment with ETOPOSIDE (5 nM); 0.959 ± 0.042 with ETOPOSIDE (10 nM); 0.925 ± 0.043 with ETOPOSIDE (50 nM); 0.925 ± 0.043 in the experiment with ETOPOSIDE (100 nM). For the same test system, the surviving fraction came to 0.557 ± 0.05 with ETOPOSIDE (500 nM); 0.484 ± 0.02 with ETOPOSIDE (1000 nM); 0.916 ± 0.055 in experiment [1] (0.5 nM); 0.826 ± 0.037 in experiment [1] (1 nM); 0.58 ± 0.045 in experiment [1] (5 nM); 0.477 ± 0.018 in experiment [1] (10 nM). The surviving fraction in experiment [1] (50 nM) amounted to 0.38 ± 0.036; in experiment [1] (100 nM), 0.331 ± 0.0082; in experiment [1] (500 nM) it was 0.233 ± 0.018; in experiment [1] (1000 nM), 0.2 ± 0.011.

For the test system CME SYNOVIAL, the surviving fraction with ETOPOSIDE (0.5 nM) came to 1.18 ± 0.13; in the experiment with ETOPOSIDE (1 nM), 1.09 ± 0.048; in the experiment with ETOPOSIDE (5 nM), 1.13 ± 0.081; in the experiment with ETOPOSIDE (10 nM), 1.13 ± 0.13; in the experiment with ETOPOSIDE (50 nM) it was 0.766 ± 0.015; with ETOPOSIDE (100 nM) it was 0.364 ± 0.04. For the same test system, the surviving fraction with ETOPOSIDE (500 nM) was determined as 0.265 ± 0.0095; with ETOPOSIDE (1000 nM), 0.369 ± 0.023; in experiment [1] (0.5 nM), 0.982 ± 0.12; in experiment [1] (1 nM), 1.32 ± 0.047; in experiment [1] (5 nM) it was 0.564 ± 0.077; in experiment [1] (10 nM), 1.42 ± 0.17. The surviving fraction turned out to be 0.287 ± 0.018 in experiment [1] (50 nM), 1.34 ± 0.057 in experiment [1] (100 nM), 0.325 ± 0.025 in experiment [1] (500 nM) and 1.31 ± 0.06 in experiment [1] (1000 nM).

For the test system COLO320DM LARGE INTESTINE, the surviving fraction with ETOPOSIDE (0.5 nM) turned out to be 1.16 ± 0.034; with ETOPOSIDE (1 nM) it was 1.05 ± 0.058; with ETOPOSIDE (5 nM), 1.15 ± 0.044; in the experiment with ETOPOSIDE (10 nM), 1.05 ± 0.093; with ETOPOSIDE (50 nM), 1.14 ± 0.046; with ETOPOSIDE (100 nM), 1.05 ± 0.049. For the same test system, the surviving fraction with ETOPOSIDE (500 nM) is 1.04 ± 0.03; in the experiment with ETOPOSIDE (1000 nM), 0.962 ± 0.042; in experiment [1] (0.5 nM), 1.1 ± 0.089; in experiment [1] (1 nM), 1.04 ± 0.041; in experiment [1] (5 nM), 1.11 ± 0.035; in experiment [1] (10 nM) it was 1.1 ± 0.072. Also, the surviving fraction in experiment [1] (50 nM) turned out to be 0.793 ± 0.055; in experiment [1] (100 nM), 0.745 ± 0.019; in experiment [1] (500 nM), 0.333 ± 0.011; in experiment [1] (1000 nM), 0.388 ± 0.015.

Regarding DU4475 BREAST, the surviving fraction worked out at 0.932 ± 0.028 in the experiment with ETOPOSIDE (0.5 nM); 0.97 ± 0.11 with ETOPOSIDE (1 nM); 0.848 ± 0.075 in the experiment with ETOPOSIDE (5 nM); 0.7 ± 0.089 with ETOPOSIDE (10 nM); 0.257 ± 0.1 with ETOPOSIDE (50 nM); 0.146 ± 0.037 with ETOPOSIDE (100 nM). The surviving fraction with ETOPOSIDE (500 nM) was 0.0573 ± 0.011; with ETOPOSIDE (1000 nM), 0.0397 ± 0.0084; in experiment [1] (0.5 nM), 0.654 ± 0.12; in experiment [1] (1 nM) it was 0.452 ± 0.065; in experiment [1] (5 nM), 0.138 ± 0.048; in experiment [1] (10 nM) it was 0.0743 ± 0.013. For the same test system, the surviving fraction worked out at 0.038 ± 0.0095 in experiment [1] (50 nM), 0.029 ± 0.0056 in experiment [1] (100 nM), 0.0257 ± 0.0045 in experiment [1] (500 nM) and 0.0277 ± 0.006 in experiment [1] (1000 nM).

Consider H23 LUNG, for which the surviving fraction turned out to be 0.988 ± 0.067 with ETOPOSIDE (0.5 nM); 1.07 ± 0.053 in the experiment with ETOPOSIDE (1 nM); 1.01 ± 0.033 in the experiment with ETOPOSIDE (5 nM); 1.04 ± 0.056 with ETOPOSIDE (10 nM); 1.11 ± 0.03 with ETOPOSIDE (50 nM); 1.07 ± 0.04 in the experiment with ETOPOSIDE (100 nM). Moreover, the surviving fraction in the experiment with ETOPOSIDE (500 nM) was determined as 0.565 ± 0.019; in the experiment with ETOPOSIDE (1000 nM), 0.509 ± 0.02; in experiment [1] (0.5 nM), 0.989 ± 0.029; in experiment [1] (1 nM) it was 0.929 ± 0.051; in experiment [1] (5 nM) it was 0.578 ± 0.032; in experiment [1] (10 nM), 0.35 ± 0.025. The surviving fraction was 0.26 ± 0.0067 in experiment [1] (50 nM), 0.23 ± 0.013 in experiment [1] (100 nM), 0.216 ± 0.0089 in experiment [1] (500 nM) and 0.206 ± 0.023 in experiment [1] (1000 nM).
